Experimental data taken from PubChem BioAssay AID328 (DTP/NCI, 2004).
Where “and” joins values, the source holds several entries; their conditions need not be identical. Equal entries are not always repeated. Inconclusive results and toxic doses are left out.

Tested on: BDF1 mice, P388 leukemia ip, median survival T/C
Assay: NCI In Vivo Anticancer Drug Screen. Data for tumor model P388 Leukemia (intraperitoneal) in B6D2F1 (BDF1) mice
Conditions: endpoint: median survival time, higher = longer survival
In short: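 Mice carrying the transplantable tumour receive compound or vehicle. Survival is followed in each arm, and the treated measure is divided by the vehicle measure.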

[1] = dose: 25.0 mg/kg/injection, schedule: Q01DX009 (ip), vehicle: saline
[2] = dose: 50.0 mg/kg/injection, schedule: Q01DX009 (ip), vehicle: saline
[3] = dose: 100.0 mg/kg/injection, schedule: Q01DX009 (ip), vehicle: saline
[4] = dose: 100.0 mg/kg/injection, schedule: Q01DX009 (ip), vehicle: Klucel (hydroxypropylcellulose) (HPC)
[5] = dose: 100.0 mg/kg/injection, schedule: Q04DX003 (ip), vehicle: Klucel (hydroxypropylcellulose) (HPC)
[6] = dose: 200.0 mg/kg/injection, schedule: Q01DX009 (ip), vehicle: Klucel (hydroxypropylcellulose) (HPC)
[7] = dose: 200.0 mg/kg/injection, schedule: Q04DX003 (ip), vehicle: Klucel (hydroxypropylcellulose) (HPC)
[8] = dose: 400.0 mg/kg/injection, schedule: Q04DX003 (ip), vehicle: Klucel (hydroxypropylcellulose) (HPC)
[9] = dose: 50.0 mg/kg/injection, schedule: Q01DX009 (ip), vehicle: Klucel (hydroxypropylcellulose) (HPC)
[10] = dose: 100.0 mg/kg/injection, schedule: Q01DX009 (ip), vehicle: saline with Tween-80
[11] = dose: 100.0 mg/kg/injection, schedule: Q04DX003 (ip), vehicle: saline with Tween-80
[12] = dose: 200.0 mg/kg/injection, schedule: Q04DX003 (ip), vehicle: saline with Tween-80
[13] = dose: 400.0 mg/kg/injection, schedule: Q04DX003 (ip), vehicle: saline with Tween-80

`Cc1cc(C=O)c(O)c(C=O)c1` was tested, and the T/C (dose: 100.0 mg/kg/injection, schedule: Q04DX002 (ip), vehicle: saline with Tween-80) was 112 % of control, the T/C (dose: 200.0 mg/kg/injection, schedule: Q04DX002 (ip), vehicle: saline with Tween-80) was 110 % of control and the T/C (dose: 400.0 mg/kg/injection, schedule: Q04DX002 (ip), vehicle: saline with Tween-80) was 109 % of control.

With `CN=C1N[N+]2=C(C)CCCC2S1` (configuration not stated) the T/C [1] was 97 % of control, the T/C [2] was 91 % of control and the T/C [3] was 99 % of control.

In the case of `O=C(/C=C/c1cccc2ccccc12)c1ccc(Cl)cc1`, the T/C [4] is reported as 109 % of control, the T/C [5] is reported as 104 % of control and the T/C [6] is reported as 95 % of control. The T/C [7] was 104 % of control and the T/C [8] was 95 % of control.

For `C[CH2][Ge]1([CH2]C)[CH2]CC2(CCN(CCCN(C)C)C2)C[CH2]1`, the T/C (dose: 0.5 mg/kg/injection, schedule: Q01DX009 (ip), vehicle: saline) was 105 % of control, the T/C (dose: 1.0 mg/kg/injection, schedule: Q01DX009 (ip), vehicle: saline) was 102 % of control and the T/C (dose: 2.0 mg/kg/injection, schedule: Q01DX009 (ip), vehicle: saline) was 103 % of control. For the same compound, the T/C (dose: 4.0 mg/kg/injection, schedule: Q01DX009 (ip), vehicle: saline) was 104 % of control and 118 % of control, the T/C (dose: 8.0 mg/kg/injection, schedule: Q01DX009 (ip), vehicle: saline) was 102 % of control and the T/C (dose: 16.0 mg/kg/injection, schedule: Q01DX009 (ip), vehicle: saline) was 103 % of control. For the same compound, the T/C (dose: 32.0 mg/kg/injection, schedule: Q01DX009 (ip), vehicle: saline) was 100 % of control, the T/C [2] was 102 % of control and the T/C (dose: 60.0 mg/kg/injection, schedule: Q01DX009 (ip), vehicle: saline with Tween-80) was 92 % of control. The T/C (dose: 64.0 mg/kg/injection, schedule: Q01DX009 (ip), vehicle: saline) was 91 % of control.

For `Cc1nc2ccc(O)cc2cc1CO`, the T/C [1] was 95 % of control, the T/C [2] was 100 % of control and the T/C [3] was 99 % of control. The T/C (dose: 200.0 mg/kg/injection, schedule: Q01DX009 (ip), vehicle: saline) was 109 % of control and the T/C (dose: 400.0 mg/kg/injection, schedule: Q01DX009 (ip), vehicle: saline) was 111 % of control.

With `Cc1nc(Cl)c2c(n1)Oc1nc(C)nc(Cl)c1C2c1ccc(Cl)cc1` the T/C (dose: 100.0 mg/kg/injection, schedule: Q01DX001 (ip), vehicle: Klucel (hydroxypropylcellulose) (HPC)) was 88 % of control and 100 % of control, the T/C (dose: 200.0 mg/kg/injection, schedule: Q01DX001 (ip), vehicle: Klucel (hydroxypropylcellulose) (HPC)) was 95 % of control and the T/C (dose: 400.0 mg/kg/injection, schedule: Q01DX001 (ip), vehicle: Klucel (hydroxypropylcellulose) (HPC)) was 88 % of control and 90 % of control.

In the case of `O=C(Cc1ccccc1)OCCc1ccccc1`, the T/C (dose: 12.5 mg/kg/injection, schedule: Q01DX009 (ip), vehicle: Klucel (hydroxypropylcellulose) (HPC)) is reported as 109 % of control, the T/C (dose: 25.0 mg/kg/injection, schedule: Q01DX009 (ip), vehicle: Klucel (hydroxypropylcellulose) (HPC)) is reported as 109 % of control and the T/C [9] is reported as 95 % of control. The T/C [5] was 109 % of control, the T/C [7] was 100 % of control and the T/C [8] was 100 % of control.

With `CCCNC1(C(N)=O)CCN(Cc2ccccc2)CC1` the T/C (dose: 25.0 mg/kg/injection, schedule: Q01DX009 (ip), vehicle: saline with Tween-80) was 107 % of control, the T/C (dose: 25.0 mg/kg/injection, schedule: Q04DX003 (ip), vehicle: saline with Tween-80) was 104 % of control and the T/C (dose: 50.0 mg/kg/injection, schedule: Q01DX009 (ip), vehicle: saline with Tween-80) was 111 % of control. The T/C (dose: 50.0 mg/kg/injection, schedule: Q04DX003 (ip), vehicle: saline with Tween-80) was 86 % of control, the T/C [10] was 96 % of control and the T/C [11] was 95 % of control.

`Cn1nnnc1N/N=C/c1ccccc1` was tested, and the T/C [11] was 110 % of control, the T/C [12] was 115 % of control and the T/C [13] was 100 % of control.

`NNC(=O)CCCCCC(=O)NN` was tested, and the T/C (dose: 100.0 mg/kg/injection, schedule: Q01DX001 (ip), vehicle: saline) was 100 % of control, the T/C (dose: 100.0 mg/kg/injection, schedule: Q01DX009 (ip), vehicle: alcohol) was 110 % of control and the T/C (dose: 100.0 mg/kg/injection, schedule: Q04DX003 (ip), vehicle: saline) was 95 % of control. For the same compound, the T/C (dose: 200.0 mg/kg/injection, schedule: Q01DX001 (ip), vehicle: saline) was 100 % of control, the T/C (dose: 200.0 mg/kg/injection, schedule: Q01DX009 (ip), vehicle: alcohol) was 95 % of control and the T/C (dose: 200.0 mg/kg/injection, schedule: Q04DX003 (ip), vehicle: saline) was 113 % of control. The T/C (dose: 400.0 mg/kg/injection, schedule: Q01DX001 (ip), vehicle: saline) was 100 % of control, the T/C (dose: 400.0 mg/kg/injection, schedule: Q01DX009 (ip), vehicle: alcohol) was 90 % of control and the T/C (dose: 400.0 mg/kg/injection, schedule: Q04DX003 (ip), vehicle: saline) was 90 % of control.

With `O=S(=O)(O)c1c(Cl)c(Cl)c(Cl)c(Cl)c1Cl` the T/C (dose: 50.0 mg/kg/injection, schedule: Q04DX003 (ip), vehicle: suspension in saline) was 115 % of control, the T/C (dose: 100.0 mg/kg/injection, schedule: Q04DX003 (ip), vehicle: suspension in saline) was 116 % of control and the T/C (dose: 200.0 mg/kg/injection, schedule: Q04DX003 (ip), vehicle: suspension in saline) was 114 % of control.

`CC1=CC(=O)C2=C(C)CCC3C(C)C(=O)OC3C12` (configuration not stated) was tested, and the T/C [11] was 100 % of control, the T/C [12] was 111 % of control and the T/C [13] was 116 % of control.

In the case of `O=C(/C=C/c1ccc([N+](=O)[O-])cc1)c1ccc(Cl)cc1`, the T/C [10] is reported as 90 % of control, the T/C [11] is reported as 95 % of control and the T/C (dose: 200.0 mg/kg/injection, schedule: Q01DX009 (ip), vehicle: saline with Tween-80) is reported as 90 % of control. For the same compound, the T/C [12] was 90 % of control, the T/C (dose: 400.0 mg/kg/injection, schedule: Q01DX009 (ip), vehicle: saline with Tween-80) was 100 % of control and the T/C [13] was 100 % of control.

In the case of `[N-]=[N+]=[N-]`, the T/C (dose: 2.5 mg/kg/injection, schedule: Q01DX009 (ip), vehicle: saline) is reported as 90 % of control, the T/C (dose: 5.0 mg/kg/injection, schedule: Q01DX009 (ip), vehicle: saline) is reported as 90 % of control and the T/C (dose: 5.0 mg/kg/injection, schedule: Q04DX003 (ip), vehicle: saline) is reported as 112 % of control. For the same compound, the T/C (dose: 10.0 mg/kg/injection, schedule: Q04DX003 (ip), vehicle: saline) was 95 % of control.

`O=C(Nc1ccc(NC(=O)Nc2cccc(C3=NCCCN3)c2)cc1)Nc1ccc(C2=NCCCN2)cc1` was tested, and the T/C (dose: 6.6 mg/kg/injection, schedule: Q01DX009 (ip), vehicle: saline with Tween-80) was 154 % of control and the T/C (dose: 10.0 mg/kg/injection, schedule: Q01DX009 (ip), vehicle: saline with Tween-80) was 181 % of control.

For `CCOC(=O)C1CN(c2ccccc2)C(=O)C1=O` (configuration not stated), the T/C [9] was 112 % of control, the T/C [4] was 118 % of control and the T/C [6] was 110 % of control. The T/C (dose: 400.0 mg/kg/injection, schedule: Q01DX009 (ip), vehicle: Klucel (hydroxypropylcellulose) (HPC)) was 110 % of control.

`CCOC(=O)c1sc2nc(C)cc(C)c2c1N` was tested, and the T/C (dose: 100.0 mg/kg/injection, schedule: Q01DX005 (ip), vehicle: saline with Tween-80) was 100 % of control and the T/C (dose: 200.0 mg/kg/injection, schedule: Q01DX005 (ip), vehicle: saline with Tween-80) was 110 % of control.
